These results are taken from ChEMBL document CHEMBL1201862, “PubChem BioAssay data set” (2004).

Among the test systems are IGROV-1; OVCAR-4; A549; RPMI-8226; SNB-75; NCI-H460; HCT-15; HOP-92; SK-OV-3; KM-20L2; SF-539; CCRF-CEM; OVCAR-8; A498; NCI-H23; SF-268; HCC 2998; HOP-62; SR; T47D.
Assay in all cases: inhibition of tumour cell growth, NCI panel, 48 h

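48-hour exposure; five concentrations; linearly interpolated endpoints. GI50 = concentration required for 50% inhibition of growth.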 Active and inactive are the calls of the source. Rule as the data show it: active = GI50 up to about 1.1 µM and inactive = higher. Some results are limits rather than exact numbers.

Regarding `COc1cc2c(cc1O)C=NCC2`, the GI50 in the assay with IGROV-1, in the assay with OVCAR-4, in the assay on A549, in the assay with RPMI-8226, in the assay with SNB-75 and in the assay with NCI-H460 was > 100 µM (inactive) throughout. The GI50 with HCT-15 is more than 100 µM; in the assay with HOP-92, > 100 µM (inactive); in the assay on SK-OV-3, > 100 µM (inactive); in the assay with KM-20L2 it was > 100 µM (inactive); in the assay on SF-539, > 100 µM (inactive); with CCRF-CEM it was 50 µM (inactive). For the same molecule, the GI50 was > 100 µM (inactive) in the assay with OVCAR-8, 94.2 µM (inactive) with A498, > 100 µM (inactive) in the assay on NCI-H23 and > 100 µM (inactive) in the assay with SF-268.

Consider `COc1ccc(C[C@]23CCC(=O)N2CCc2cc(OC)c(O)cc23)cc1O`, for which the GI50 in the assay with IGROV-1, in the assay with OVCAR-4, in the assay on A549, with RPMI-8226, in the assay on SNB-75 and with NCI-H460 was > 100 µM (inactive) in each case. Besides, the GI50 with HCT-15 is more than 100 µM; with HOP-92, > 100 µM (inactive); in the assay on KM-20L2 it was > 100 µM (inactive); in the assay with SF-539, > 100 µM (inactive); with HCC 2998 it was > 100 µM (inactive); in the assay with CCRF-CEM, > 100 µM (inactive). In addition, the GI50 in the assay on OVCAR-8 was 30 µM (inactive); in the assay with A498, > 100 µM (inactive); in the assay on NCI-H23 it was > 100 µM (inactive); in the assay with SF-268, > 100 µM (inactive); in the assay on HOP-62 it was > 100 µM (inactive).

For `Nc1cccc(S(=O)(=O)NCC(=O)O)c1`, the GI50 with IGROV-1, with OVCAR-4, in the assay on A549, with RPMI-8226, in the assay with SNB-75 and in the assay on NCI-H460 was > 100 µM (inactive) throughout. For the same molecule, the GI50 in the assay with HCT-15 is more than 100 µM; with SK-OV-3, > 100 µM (inactive); in the assay on KM-20L2 it was > 100 µM (inactive); with SF-539, > 100 µM (inactive); with HCC 2998 it was > 100 µM (inactive); in the assay on CCRF-CEM, > 100 µM (inactive). Also, the GI50 in the assay with OVCAR-8, with NCI-H23, in the assay with SF-268 and with HOP-62 was > 100 µM (inactive) throughout.

For the molecule `CC(C)C(=O)/C=C/c1c(Cl)cccc1Cl`, the GI50 is 3.75 µM (inactive) in the assay with IGROV-1; 3.4 µM (inactive) with OVCAR-4; 4.15 µM (inactive) in the assay on A549; > 100 µM (inactive) in the assay with RPMI-8226; 2.25 µM (inactive) in the assay on SNB-75; 2.18 µM (inactive) in the assay on NCI-H460. The GI50 is 4.55 µM in the assay with HCT-15; 12.9 µM (inactive) in the assay with HOP-92; 3.28 µM (inactive) with SK-OV-3; 3.04 µM (inactive) with SF-539; 15.6 µM (inactive) with HCC 2998; 11.6 µM (inactive) in the assay with CCRF-CEM. For the same molecule, the GI50 in the assay with SR is 1.91 µM (inactive); in the assay on OVCAR-8, 3.86 µM (inactive); in the assay on T47D it was 2.95 µM (inactive); with A498, 21.2 µM (inactive); in the assay on NCI-H23 it was 2.33 µM (inactive); in the assay with SF-268, 2.39 µM (inactive). Moreover, the GI50 in the assay with HOP-62 was 5.83 µM (inactive).

Turning to `CCN1C/C(=C\c2cc(OC)c(OC)c(OC)c2)C2=NN(c3ccccc3)C(c3cc(OC)c(OC)c(OC)c3)C2C1` (centres undefined), the GI50 is 6.43 µM (inactive) in the assay on IGROV-1; 1.91 µM (inactive) in the assay on OVCAR-4; 1.5 µM (inactive) with A549; 1.13 µM (inactive) in the assay with RPMI-8226; 0.268 µM (active) in the assay with SNB-75; 1.06 µM (active) in the assay on NCI-H460. For the same molecule, the GI50 in the assay on HCT-15 was 5.58 µM; with HOP-92 it was 2.92 µM (inactive); with SK-OV-3 it was 1.74 µM (inactive); in the assay on SF-539, 0.535 µM (active); in the assay with HCC 2998, 1.07 µM (active); in the assay with CCRF-CEM it was 1.81 µM (inactive). The GI50 was 2.03 µM (inactive) with SR; 1.61 µM (inactive) in the assay with OVCAR-8; 3.53 µM (inactive) with T47D; 17.1 µM (inactive) in the assay on A498; 3.56 µM (inactive) in the assay on NCI-H23; 0.365 µM (active) in the assay on SF-268. For the same molecule, in the assay with HOP-62, the GI50 was 0.855 µM (active).

On to `CC(C)(C)C1=CC(=C2C=Cc3cc(O)ccc3O2)C=C(C(C)(C)C)C1=O`, for which the GI50 is 1.59 µM (inactive) with IGROV-1; 1.31 µM (inactive) in the assay on OVCAR-4; 1.5 µM (inactive) with A549; 0.782 µM (active) in the assay on RPMI-8226; 1.73 µM (inactive) in the assay on SNB-75; 1.34 µM (inactive) in the assay with NCI-H460. The GI50 in the assay on HCT-15 is 1.79 µM; in the assay on HOP-92 it was 1.67 µM (inactive); with SK-OV-3, 2.21 µM (inactive); in the assay with SF-539, 1.87 µM (inactive); in the assay with HCC 2998 it was 1.26 µM (inactive); with CCRF-CEM it was 0.745 µM (active). In addition, the GI50 was 0.731 µM (active) in the assay with SR; 1.7 µM (inactive) in the assay with OVCAR-8; 0.627 µM (active) in the assay with T47D; 1.5 µM (inactive) in the assay on A498; 1.79 µM (inactive) with NCI-H23; 1.81 µM (inactive) with SF-268. The GI50 in the assay with HOP-62 is 1.92 µM (inactive).

`O=C(NCCN1CCCCC1)c1ccc(I)cc1`: the GI50 in the assay with IGROV-1 was > 100 µM (inactive); with OVCAR-4, > 100 µM (inactive); in the assay on A549, > 100 µM (inactive); in the assay with RPMI-8226, > 100 µM (inactive); in the assay on SNB-75 it was 89.3 µM (inactive); in the assay on NCI-H460, > 100 µM (inactive). Also, the GI50 in the assay with HCT-15 is more than 100 µM; in the assay with HOP-92, 96.4 µM (inactive); in the assay on SK-OV-3, > 100 µM (inactive); in the assay on SF-539, > 100 µM (inactive); in the assay on HCC 2998, > 100 µM (inactive); in the assay with CCRF-CEM, > 100 µM (inactive). For the same molecule, the GI50 in the assay on SR is > 100 µM (inactive); in the assay with OVCAR-8, > 100 µM (inactive); with T47D, > 100 µM (inactive); with A498 it was 24.8 µM (inactive); in the assay on NCI-H23 it was > 100 µM (inactive); with SF-268 it was > 100 µM (inactive). For the same molecule, the GI50 in the assay with HOP-62 was > 100 µM (inactive).

Regarding `CC1CC[C@@]2(OC1)O[C@H]1C[C@H]3[C@@H]4CC[C@H]5C[C@@H](OC6OC(CO)C(OC7OC(CO)C(OC8OC(CO)C(O)C(OC9OC(C)C(OC%10OC(C)C(O)C(O)C%10O)C(O)C9O)C8OC8OCC(O)C(O)C8O)C(O)C7O)C(O)C6O)CC[C@]5(C)[C@H]4CC(=O)[C@]3(C)[C@H]1[C@@H]2C` (some centres undefined), the GI50 is 20.5 µM (inactive) with IGROV-1; 16.1 µM (inactive) in the assay with OVCAR-4; 23.2 µM (inactive) in the assay on A549; 16.2 µM (inactive) in the assay on RPMI-8226; 19.8 µM (inactive) with SNB-75; 17.8 µM (inactive) in the assay with NCI-H460. The GI50 is 19.1 µM in the assay on HCT-15; 19 µM (inactive) with HOP-92; 24.1 µM (inactive) in the assay with SK-OV-3; 14.8 µM (inactive) with SF-539; 18.7 µM (inactive) with HCC 2998; 12.2 µM (inactive) in the assay on CCRF-CEM. The GI50 in the assay with SR was 14.6 µM (inactive); in the assay on OVCAR-8 it was 20.7 µM (inactive); in the assay on T47D, 19.3 µM (inactive); with A498, 18.2 µM (inactive); in the assay with NCI-H23, 20.5 µM (inactive); in the assay on SF-268, 25.6 µM (inactive). Further, the GI50 in the assay on HOP-62 is 21.4 µM (inactive).
